Earlier results, collected in publication PMC3618595 (Pharmaceutical research, 2013).

Legend:
[1] = cited from earlier work
plasma proteins = conditions: cited from earlier work
hASBT = target: T1, hASBT (Homo sapiens, UniProt Q12908); conditions: taurocholate; cited from earlier work
T1 sequence (Q12908 1-348): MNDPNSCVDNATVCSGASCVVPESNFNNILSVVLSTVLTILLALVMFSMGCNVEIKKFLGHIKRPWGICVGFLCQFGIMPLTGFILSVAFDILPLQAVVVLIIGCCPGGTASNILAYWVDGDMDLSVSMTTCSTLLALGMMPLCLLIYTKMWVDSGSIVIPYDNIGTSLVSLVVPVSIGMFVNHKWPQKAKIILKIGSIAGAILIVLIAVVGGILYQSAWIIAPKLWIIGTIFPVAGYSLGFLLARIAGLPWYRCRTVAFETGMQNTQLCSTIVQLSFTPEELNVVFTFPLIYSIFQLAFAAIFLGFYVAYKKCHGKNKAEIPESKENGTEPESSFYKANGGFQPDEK

C[C@H](CCC(=O)O)[C@H]1CC[C@H]2[C@@H]3[C@H](O)C[C@@H]4C[C@H](O)CC[C@]4(C)[C@H]3CC[C@]12C [chenodeoxycholic acid]
Octanol/water partition coefficient [1]: 23.3 | Binding to plasma proteins (plasma proteins): 96.2%

C[C@H](CCC(=O)NCCS(=O)(=O)O)[C@H]1CC[C@H]2[C@@H]3[C@H](O)C[C@@H]4C[C@H](O)CC[C@]4(C)[C@H]3C[C@H](O)[C@]12C [taurocholate]
Km (hASBT): 4.39 µM
